These results are taken from US20050209319A1, “Treatment of local pain” (XenoPort, Inc., priority 2004, published 2005).

For one data set, the system named is Caco-2 cell monolayers. As to the kind of experiment: Permeability across Caco-2 cell monolayers (cultured human epithelial cell monolayer assay). The class given is in vitro ADME. The note with it: for Permeability coefficient (Papp) A to B: apical to basolateral; for Permeability coefficient (Papp) A to B / Permeability coefficient (Papp) B to A: donor 100-200 μM, 1 hr at 37° C, apical pH 6.5, basolateral pH 7.4; for Permeability coefficient (Papp) B to A: basolateral to apical. The text has this: The following comparative test was run to determine the permeability of gabapentin and a prodrug of gabapentin across a cultured monolayer of human mucosal tissue cells (intestinal epithelial cells). Intestinal epithelial cells have an apical side (i.e., the side normally facing the gut lumen) and a basolateral side (i.e., the side normally facing the patient's internal blood carrying tissues). Both the permeability of the compounds through the monolayer of cells from apical to basolateral (A to B) and basolateral to apical (B to A) were measured.
Caco-2 cells were obtained from the ATCC (Manassas, Va.) and cultured as indicated by the supplier. Caco-2 cells were seeded into 24-well transwell plates with 3 μm filters (Corning/Costar, Acton, Mass.) at a density of 500,000 cells/well and allowed to differentiate in the transwell plates for 21 days. The test compounds were dissolved into either pH 6.5 (apical MES (4-morpholineethane sulfonic acid) buffer) or pH 7.4 (basolateral HBSS (Hanks balanced salt solution) buffer) at concentrations of 100 to 200 μM and added to the appropriate chambers. Samples were removed from the receiving chambers at various times and the permeability was measured by determining the concentration of prodrug and gabapentin (produced by esterase cleavage within the epithelial cells) by LC/MS/MS (liquid chromatography/mass spectroscopy/mass spectroscopy). Apparent permeability coefficients (“Papp”) were calculated by standard methods (B. H. Stewart et al., Pharm. Res., 1995, 12, pp. 693-699). Integrity of the monolayer was confirmed by determining the permeability of 3H-inulin. If greater than 0.5% of the inulin was detected in the receiving chamber, the transwells were discarded.
(Caco-2 monolayers are a common model of the intestinal barrier.)

Data set [1] is described as follows: Parallel artificial membrane permeability assay (PAMPA). The note with it: for Passive permeability in vitro across artificial membranes (in words): PAMPA assays; for Papp at 2 h, 50 µM: PAMPA. It is filed as in vitro ADME. As to the method:
Artificial membranes were prepared by adding 4 μL of 2% (w/v) dioleoylphosphatidyl-choline in dodecane onto the hydrophobic filters ([…] polyvinylidene fluoride) on the base of the wells of a 96-well donor plate (Millipore, Bedford, Mass.). Gabapentin or a gabapentin prodrug (150 μL of 50 μM solution in 0.1 M Tris buffer, pH 6.5 or pH 7.4) was added to the donor wells in triplicate. The gabapentin prodrug used was 1-{[(α-isobutanoyloxyethoxy)carbonyl]-aminomethyl}-1-cyclohexane acetic acid. The plate was placed onto a 96-well acceptor plate (Agilent, Wilmington, Del.), in which each well contained 400 μL 0.1 M Tris, pH 7.4. Following incubation for two hours at room temperature, samples of the donor and receiver chambers were removed for analysis by LC/MS/MS. The permeability coefficient through the artificial membrane (“Pam”) was calculated using standard methods (Sugano et al., Int. J. Pharm., 2001, 228, pp. 181-188). The artificial membrane permeability coefficient, Pam, of 1-{[(α-isobutanoyloxyethoxy)carbonyl]-aminomethyl}-1-cyclohexane acetic acid was about 5 to 30 times higher than the Pam for gabapentin at the two test pH values as shown in Table 2.
(In general: PAMPA measures passive passage across an artificial lipid membrane.)

For data set [2] the following is noted: injection into hindpaw of rats pretreated with 2% formalin injection; cited from earlier work.

Structures are written as SMILES. Like-named read-outs stand apart in the source and are kept apart here.

`CC(OC(=O)NCC1(CC(=O)O)CCCCC1)OC(=O)C(C)C` (stereo not drawn) [1-{[(α-isobutanoyloxyethoxy)carbonyl]-aminomethyl}-1-cyclohexane acetic acid]: in the data set on Caco-2 cell monolayers, the “Passive permeability in vitro through Caco-2 cell monolayers (in words)” value is listed as “relatively high passive permeability”, the “Permeability coefficient (Papp) A to B” value is recorded as 31 (cm/sec) × 10^6 and the “Permeability coefficient (Papp) B to A” value was 5.7 (cm/sec) × 10^6. Further, the “Papp compared with the Papp for gabapentin” value in the data set with Caco-2 cell monolayers (from the basolateral to the apical side) is reported as “significantly higher”. Also, the “Passive permeability in vitro across artificial membranes (in words)” value in data set [1] is “relatively high passive permeability”. Besides, the “Permeability coefficient (Pam) pH 6.5” value in data set [1] (donor chamber pH 6.5, 50 μM, two hours at room temperature, acceptor pH 7.4) was 0.65 (cm/sec) × 10^6. For the same compound, the “Permeability coefficient (Pam) pH 7.4” value in data set [1] (donor chamber pH 7.4, 50 μM, two hours at room temperature, acceptor pH 7.4) is listed as 0.095 (cm/sec) × 10^6.
For the compound `NCC1(CC(=O)O)CCCCC1` [Gabapentin], the “Passive permeability in vitro through Caco-2 cell monolayers (in words)” value with Caco-2 cell monolayers (Caco-2) is recorded as “limited passive permeability”. In the data set on Caco-2 cell monolayers, the “Permeability coefficient (Papp) A to B” value is 3.2 (cm/sec) × 10^6 and the “Permeability coefficient (Papp) B to A” value is on record as 3.4 (cm/sec) × 10^6. Also, in data set [1], the “Passive permeability in vitro across artificial membranes (in words)” value is recorded as “limited passive permeability”. Also, the Papp at 2 h, 50 µM in data set [1] (donor chamber pH 6.5, 50 μM, two hours at room temperature, acceptor pH 7.4, read-out: Permeability coefficient (Pam) pH 6.5) stood at 0.02 ×10⁻⁶ cm/s. In addition, the Papp at 2 h, 50 µM in data set [1] (donor chamber pH 7.4, 50 μM, two hours at room temperature, acceptor pH 7.4, read-out: Permeability coefficient (Pam) pH 7.4) was 0.026 ×10⁻⁶ cm/s. The “Effect on nociceptive behavior” value in data set [2] is given as “significantly reduced nociceptive behavior”.
